Where two headings read alike, the source gives them in different places. Starred links: 1 amine or outer side, 2 acyl side, 3 side chain; linkers in the order of their positions; H or OH if unused. Non-standard residues stand in square brackets, D forms with d. Residues, ends and D or L forms follow the SMILES beside them. Groups on a side chain read outwards from the residue. *: point of attachment. C18 diacid = O=C(O)CCCCCCCCCCCCCCCCC(=O)*; γGlu = O=C(O)[C@H](CCC(=O)[*:2])N[*:1]; εLys = N[C@@H](CCCCN[*:1])C(=O)[*:2]; Aib = CC(C)(N)C(=O)O
What was measured:
[1] = Pharmacokinetic study in dogs, oral dosing of tablet compositions with SNAC; assay type: in vivo, Beagle dogs; settings: male, beagle, dog, in vivo, po
Outline: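 Male beagle dogs (9-17 kg), fasted, received a single oral tablet with 100-300 mg SNAC and 3-4 mg test substance, groups of 6-8.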

human GLP-1 receptor = biological target: T1, human GLP-1 receptor (Homo sapiens, UniProt P43220); test: In vitro functional potency, CRE luciferase reporter gene assay, whole BHK cells expressing hGLP-1R; assay type: cell-based; settings: BHK CRE luc2P hGLP-1R cells
T1 construct: expressed in transfected cells; host or cells: BHK (parent line BHKTS13), clone BHK CRE luc2P hGLP-1R
T1 sequence (P43220 24-463): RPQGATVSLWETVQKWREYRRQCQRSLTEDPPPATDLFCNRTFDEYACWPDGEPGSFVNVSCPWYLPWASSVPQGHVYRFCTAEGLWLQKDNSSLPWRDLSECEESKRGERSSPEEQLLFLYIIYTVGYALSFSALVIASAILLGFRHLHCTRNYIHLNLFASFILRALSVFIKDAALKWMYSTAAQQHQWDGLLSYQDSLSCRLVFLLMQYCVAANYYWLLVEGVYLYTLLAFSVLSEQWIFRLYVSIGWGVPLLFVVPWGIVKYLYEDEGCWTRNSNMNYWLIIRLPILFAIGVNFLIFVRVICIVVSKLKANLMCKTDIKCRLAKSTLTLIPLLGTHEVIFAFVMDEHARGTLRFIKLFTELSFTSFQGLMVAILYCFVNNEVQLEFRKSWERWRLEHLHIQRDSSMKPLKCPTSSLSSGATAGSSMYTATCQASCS

With `CC[C@H](C)[C@H](NC(=O)[C@H](Cc1ccccc1)NC(=O)[C@H](CCC(=O)O)NC(=O)[C@H](CCCNC(=N)N)NC(=O)[C@H](C)NC(=O)[C@H](C)NC(=O)[C@H](CCC(N)=O)NC(=O)[C@H](CCCCNC(=O)[C@@H](N)CCCCNC(=O)[C@@H](N)CCCCNC(=O)CC[C@H](NC(=O)CCCCCCCCCCCCCCCCC(=O)O)C(=O)O)NC(=O)[C@H](CCC(=O)O)NC(=O)[C@H](CC(C)C)NC(=O)[C@H](CC(C)C)NC(=O)[C@@H](NC(=O)[C@H](CO)NC(=O)[C@H](Cc1ccc(O)cc1)NC(=O)[C@H](CC(=O)O)NC(=O)[C@H](CO)NC(=O)[C@@H](NC(=O)[C@H](Cc1ccccc1)NC(=O)[C@@H](NC(=O)CNC(=O)[C@H](CCC(=O)O)NC(=O)C(C)(C)NC(=O)[C@@H](N)Cc1ccc(O)cc1)[C@@H](C)O)[C@@H](C)O)[C@@H](C)CC)C(=O)N[C@@H](CC(N)=O)C(=O)N[C@@H](Cc1c[nH]c2ccccc12)C(=O)N[C@@H](CC(C)C)C(=O)N[C@@H](CC(C)C)C(=O)N[C@@H](C)C(=O)NCC(=O)NCC(=O)N1CCC[C@H]1C(=O)N[C@@H](CO)C(=O)N[C@@H](CO)C(=O)NCC(=O)N[C@@H](C)C(=O)N1CCC[C@H]1C(=O)N1CCC[C@H]1C(=O)N1CCC[C@H]1C(=O)N[C@@H](CO)C(=O)O` [Compound No. 15] (H-Y[Aib]EGTFTSDYSILLEK([εLys-εLys-γGlu-C18 diacid])QAAREFINWLLAGGPSSGAPPPS-OH) the Tmax ([1]; Tmax) was 1.5 h, the half-life ([1]; t1/2) was 59 h and the EC50 (human GLP-1 receptor; 0% HSA, read-out: hGLP-1R, CRE Luc 0% HSA EC50) was 0.005 nM. For the same compound, the EC50 (human GLP-1 receptor; hGLP-1R, CRE Luc 1% HSA EC50, 1% HSA) was 0.13 nM.
